Experimental data published in patent US9187455B2, “Substituted pyridazines as PDE10A inhibitors” (Hoffmann-La Roche Inc., priority 2009, dated 2015).

target: T1, PDE10A2 (Homo sapiens, UniProt Q9Y233); assay: PDE10A2 Scintillation Proximity Assay (SPA), [3H]-cGMP hydrolysis; format: biochemical; details: catalytic domain of human PDE10A2 (S449-D789), 0.25 nM enzyme, 50 nM cGMP + 50 nM [3H]-cGMP, 30 minutes at room temperature; read-out: PDE10A2 inhibition IC50
T1 construct: residues serine 449 to aspartate 789; His6 (H6) with Gateway linker and thrombin cleavage site (N, cleaved yes); made in house; host or cells: E. coli BL21(DE3) pLysS
T1 sequence (Q9Y233 715-1055): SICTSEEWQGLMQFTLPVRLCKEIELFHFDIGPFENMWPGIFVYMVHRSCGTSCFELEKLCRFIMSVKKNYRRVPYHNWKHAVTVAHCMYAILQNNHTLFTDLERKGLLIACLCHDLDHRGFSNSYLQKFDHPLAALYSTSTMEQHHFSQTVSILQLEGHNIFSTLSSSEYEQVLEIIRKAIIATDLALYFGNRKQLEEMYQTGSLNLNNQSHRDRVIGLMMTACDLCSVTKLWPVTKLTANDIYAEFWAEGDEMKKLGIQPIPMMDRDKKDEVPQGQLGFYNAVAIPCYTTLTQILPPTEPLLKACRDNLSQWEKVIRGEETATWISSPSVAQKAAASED
Procedure: The following tests were carried out in order to determine the activity of the compounds of the present invention. PDE10 activity of the compounds of the present invention is determined using a Scintillation Proximity Assay (SPA)-based method similar to the one previously described (Fawcett, L. et al., ProcNatl Acad Sci USA (2000) 97(7):3702-3707).
PDE10A1 and PDE10A2 are two splice variants of PDE10A. There are these 2 splice variants known, which differ in the N-terminal part of the protein. The catalytic domains of PDE10A1 and PDE10A2 are identical. The assay for PDE10A2 described below is therefore also representative for PDE10A1 and also for PDE10A in general.
The PDE10A2 assay was performed in a two step procedure in 96-well micro titer plates. The reaction mixture of 80 μl contained 20 mM HEPES/10 mM MgCl2/[…] (pH 7.5), 50 nM cGMP (Sigma) and 50 nM [^3H]-cGMP (GE Healthcare), 0.25 nM PDE10A2 with or without a specific test compound. A range of concentrations of the potential inhibitor was used to generate data for calculating the concentration of inhibitor resulting in 50% of the effect (e.g. IC50, the concentration of the competitor inhibiting PDE10A2 activity 50%). Non-specific activity was tested without the enzyme. The reaction was initiated by addition of the substrate solution (cGMP and [^3H]-cGMP) and allowed to progress for 30 minutes at room temperature. The reaction was terminated by transferring 50 μl of the reaction mixture into an OptiPlate (Perkin Elmer) containing 25 μl of YSi-SPA scintillation beads (GE Healthcare) in 18 mM zinc sulphate solution (stop reagent). After 1 h under shaking, the plate was centrifuged one minute at 1000 rpm to allow beads to settle. Afterwards, radioactive counts were measured on a Perkin Elmer TopCount Scintillation plate reader.
The catalytic domain of human PDE10A2, residues serine 449 to aspartate 789, was amplified by PCR using cDNA (Origene) and the oligonucleotides 5′-GGGGACAAGTTTGT […]-3′ (with AttB1 recombination site in bold and thrombin protease cleavage site in italics) and 5′-[…]-3′ (with AttB2 recombination site in bold) which conferred Gateway recombination sites. The PCR product was used in a BP recombination reaction with pDONR221 to generate pENTR Thm-PDE10A2(S449-D789) which was DNA sequence verified and then used in an LR recombination reaction with a Gateway modified version of pET11a. The resulting expression vector, placT7.2H6-(gwl)-Thm-PDE10A2(S449-D789) was DNA sequence confirmed and transformed into E. coli strain BL21(DE3) pLysS and recombinant protein was produced in TB medium at 20° C. by induction to a final IPTG concentration of 0.5 mM at an optical density of 1.0 at 600 nm for 20 hours. About 30% of the protein was in the soluble fraction of the cell homogenate. The protein was purified using sequential chromatography on Ni-NTA and HiTrapQ/HiTrapS. After thrombin digest at room temperature a HiTrapChelating/HiTrap Benzamindin chromatography removed impurities, uncleaved protein and thrombin. Final purification of PDE10A2(S449-D789) was performed on a Superdex 75 size exclusion chromatography equilibrated with 25 mM HEPES pH 8.4, 0.15 M NaCl. The yield of pure protein was 2 mg/liter of culture volume is relatively low. The purity of the protein was >95%, monomeric and monodisperse as shown by SDS-PAGE, HPLC and analytical ultracentrifugation.

Row | SMILES | IC50 [µM]
1 | COc1cc(-n2ccc(=O)c(-c3ccnn3-c3cccc(F)c3)n2)ccn1 [Example 40, 3-[2-(3-Fluoro-phenyl)-2H-pyrazol-3-yl]-1-(2-methoxy-pyridin-4-yl)-1H-pyridazin-4-one] | 0.414
2 | O=c1ccn(-c2ccc3cnccc3c2)nc1-c1ccnn1-c1cccc(F)c1 [Example 101, 3-[2-(3-Fluoro-phenyl)-2H-pyrazol-3-yl]-1-isoquinolin-6-yl-1H-pyridazin-4-one] | 0.041
3 | Cc1cncc(-n2ccc(=O)c(-c3ccnn3-c3cccc(F)c3)n2)c1 [Example 37, 3-[2-(3-Fluoro-phenyl)-2H-pyrazol-3-yl]-1-(5-methyl-pyridin-3-yl)-1H-pyridazin-4-one] | 0.149
4 | Cc1cncc(-n2ccc(=O)c(-c3ccnn3-c3ccccc3F)n2)c1 [Example 90, 3-[2-(2-Fluoro-phenyl)-2H-pyrazol-3-yl]-1-(5-methyl-pyridin-3-yl)-1H-pyridazin-4-one] | 0.09
5 | N#Cc1cc(-n2ccc(=O)c(-c3ccnn3-c3ccccc3F)n2)ccn1 [Example 96, 4-{3-[2-(2-Fluoro-phenyl)-2H-pyrazol-3-yl]-4-oxo-4H-pyridazin-1-yl}-pyridine-2-carbonitrile] | 0.308
6 | Cc1cc(-n2ccc(=O)c(-c3ccnn3-c3cccc(F)c3)n2)ccn1 [Example 39, 3-[2-(3-Fluoro-phenyl)-2H-pyrazol-3-yl]-1-(2-methyl-pyridin-4-yl)-1H-pyridazin-4-one] | 2.56
7 | O=c1ccn(-c2ccncc2)nc1-c1ccnn1-c1cncc2ccccc12 [Example 73, 3-(2-Isoquinolin-4-yl-2H-pyrazol-3-yl)-1-pyridin-4-yl-1H-pyridazin-4-one] | 0.188
8 | O=c1ccn(-c2ccnc(N3CCOCC3)c2)nc1-c1ccnn1-c1cccc(F)c1 [Example 42, 3-[2-(3-Fluoro-phenyl)-2H-pyrazol-3-yl]-1-(2-morpholin-4-yl-pyridin-4-yl)-1H-pyridazin-4-one] | 1.42

More lines, now with the values ahead:

Row | IC50 [µM] | SMILES
9 | 0.126 | O=c1ccn(-c2ccncc2)nc1-c1ccnn1-c1cccc2ccncc12 [Example 27, 3-(2-Isoquinolin-8-yl-2H-pyrazol-3-yl)-1-pyridin-4-yl-1H-pyridazin-4-one]
10 | 1.13 | Cc1cc(-n2nccc2-c2nn(-c3ccc(Cl)nc3)ccc2=O)ccn1 [Example 88, 1-(6-Chloro-pyridin-3-yl)-3-[2-(2-methyl-pyridin-4-yl)-2H-pyrazol-3-yl]-1H-pyridazin-4-one]
11 | 0.177 | O=c1ccn(-c2cncc(Cl)c2)nc1-c1ccnn1-c1ccnc2ccc(F)cc12 [Example 52, 1-(5-Chloro-pyridin-3-yl)-3-[2-(6-fluoro-quinolin-4-yl)-2H-pyrazol-3-yl]-1H-pyridazin-4-one]
12 | 0.22 | O=c1ccn(-c2cncc(Cl)c2)nc1-c1ccnn1-c1ccnc2ccc(Cl)cc12 [Example 61, 1-(5-Chloro-pyridin-3-yl)-3-[2-(6-chloro-quinolin-4-yl)-2H-pyrazol-3-yl]-1H-pyridazin-4-one]
13 | 0.154 | O=c1ccn(-c2ccnc(Cl)c2)nc1-c1ccnn1-c1ccnc2ccc(Cl)cc12 [Example 62, 1-(2-Chloro-pyridin-4-yl)-3-[2-(6-chloro-quinolin-4-yl)-2H-pyrazol-3-yl]-1H-pyridazin-4-one]
14 | 0.066 | O=c1ccn(-c2ccnc(Cl)c2)nc1-c1ccnn1-c1ccnc2ccccc12 [Example 54, 1-(2-Chloro-pyridin-4-yl)-3-(2-quinolin-4-yl-2H-pyrazol-3-yl)-1H-pyridazin-4-one]
15 | 0.057 | O=c1ccn(-c2ccnc(Cl)c2)nc1-c1ccnn1-c1ccnc2cc(Cl)ccc12 [Example 69, 1-(2-Chloro-pyridin-4-yl)-3-[2-(7-chloro-quinolin-4-yl)-2H-pyrazol-3-yl]-1H-pyridazin-4-one]
16 | 0.087 | O=c1ccn(-c2cccnc2)nc1-c1ccnn1-c1ccnc2ccc(F)cc12 [Example 50, 3-[2-(6-Fluoro-quinolin-4-yl)-2H-pyrazol-3-yl]-1-pyridin-3-yl-1H-pyridazin-4-one]
